Experimental data: article PMC11946679 (Toxics, 2025)

Experiments:
[1] = test system: human peripheral blood lymphocytes; assay: CBMN cytome assay: lymphocyte proliferation (M1-M4, CBPI, RI); assay type: cell-based; settings: 3 h
Method: On the same slides, parameters of cell proliferation and cytotoxicity were also evaluated, in line with the OECD protocol.

human lymphocytes = test system: human lymphocytes; design: method as in PMID 27461151; settings: galangin at 10-20,000 μmol/L; cited from earlier work
[2] = test system: human peripheral blood lymphocytes; assay: CBMN cytome assay: micronuclei, nuclear buds, nucleoplasmic bridges; settings: 3 h
Method: The CBMN assay was performed in line with standard protocols [8, 23].
To collect the blood sample, lithium heparin-coated tubes were used (BD vacutainer® with LH 170 I.U., Becton Dickinson: BD-Plymouth PL6 78P, UK).
There were 15 experimental groups altogether. The same experimental design was applied in two independent trials, each of which had two replicate cultures per experimental group; therefore, four replicate cultures for every single experimental group were established.
To induce cell division prior to exposure to the test chemicals, lymphocytes were stimulated with the mitogen phytohemagglutinin (PHA). Cultures were kept in a humidified atmosphere of 5% CO2 at 37 °C.
They started 41 h after PHA stimulation and lasted for 3 h at 37 °C.
Upon completion of exposure, lymphocyte cultures were centrifuged at 100× g. […] This procedure was timed for the 44th hour of lymphocyte cultivation, which represents a critical point for adding of cytoB to hinder cytokinesis and obtain binucleated cells. All treated and control cultures were further maintained at 37 °C until the end of the 72nd hour of cultivation, according to the above-mentioned standard protocols.
The first step in the preparation of microscopic slides was harvesting of cells by centrifugation (100× g), followed by treatment with 0.075 mol/L potassium chloride and succeeded by centrifugation. The sediments of cells were repeatedly fixed with methanol/acetic acid (3:1 v/v) followed by centrifugation. The final lymphocyte suspension was pipetted onto clean microscope slides. For staining, 5% aqueous solution of Giemsa dye was used. Slides were screened using a light microscope at 1000× magnification. For morphological discrimination of micronuclei (MNi), nuclear buds (NBs), nucleoplasmic bridges (NPBs) and cells in apoptosis or necrosis, the criteria by Fenech et al. [25] and Fenech [23] were applied. To determine their frequencies, per experimental point, a total of 4 × 1000 binucleated (BN) cells were scored.
This value was first used to estimate the number of MNi required to reach a decrease and an increase considered significant at a 5% significance level.

[3] = 1× + IRI 9.0 mg/L, propolis 1.36 mg/L, galangin 0.02 mg/L
[4] = 1× alone, propolis 1.36 mg/L, galangin 0.02 mg/L
[5] = 5× + IRI 9.0 mg/L, propolis 6.8 mg/L, galangin […]
[6] = 5× alone, propolis 6.8 mg/L, galangin […]
[7] = 10× + IRI 9.0 mg/L, propolis 13.6 mg/L, galangin 0.22 mg/L
[8] = 10× alone, propolis 13.6 mg/L, galangin 0.22 mg/L

O=c1c(O)c(-c2ccccc2)oc2cc(O)cc(O)c12 [Galangin]
% of Cells with 1 to 4 Nuclei M1 [1, 3]: 24.5 ^↑L % | % of Cells with 1 to 4 Nuclei M2 [1, 3]: 72.3 ^H % | % of Cells with 1 to 4 Nuclei M3 [1, 3]: 1.4 ^↓ % | % of Cells with 1 to 4 Nuclei M4 [1, 3]: 1.8 ^↓ % | CBPI [1, 3]: 1.788 | Replication Index (%) [1, 3]: 80.1% | % of Cells with 1 to 4 Nuclei M1 [1, 4]: 13.4% | % of Cells with 1 to 4 Nuclei M2 [1, 4]: 74.7% | % of Cells with 1 to 4 Nuclei M3 [1, 4]: 4.0% | % of Cells with 1 to 4 Nuclei M4 [1, 4]: 7.9% | CBPI [1, 4]: 1.986 | Replication Index (%) [1, 4]: 100.3% | % of Cells with 1 to 4 Nuclei M1 [1, 5]: 22.6 ^↑L % | % of Cells with 1 to 4 Nuclei M2 [1, 5]: 74.2 ^H % | % of Cells with 1 to 4 Nuclei M3 [1, 5]: 1.6 ^↓ % | % of Cells with 1 to 4 Nuclei M4 [1, 5]: 1.6 ^↓ % | CBPI [1, 5]: 1.806 | Replication Index (%) [1, 5]: 82.0% | % of Cells with 1 to 4 Nuclei M1 [1, 6]: 13.3% | % of Cells with 1 to 4 Nuclei M2 [1, 6]: 76.9 ^↑ % | % of Cells with 1 to 4 Nuclei M3 [1, 6]: 3.3 ^↓ % | % of Cells with 1 to 4 Nuclei M4 [1, 6]: 6.5% | CBPI [1, 6]: 1.967 | Replication Index (%) [1, 6]: 98.3% | % of Cells with 1 to 4 Nuclei M1 [1, 7]: 23.1 ^↑L % | % of Cells with 1 to 4 Nuclei M2 [1, 7]: 74.6 ^H % | % of Cells with 1 to 4 Nuclei M3 [1, 7]: 1.0 ^↓L % | % of Cells with 1 to 4 Nuclei M4 [1, 7]: 1.3 ^↓ % | CBPI [1, 7]: 1.792 | Replication Index (%) [1, 7]: 80.5% | % of Cells with 1 to 4 Nuclei M1 [1, 8]: 10.8 ^↓ % | % of Cells with 1 to 4 Nuclei M2 [1, 8]: 79.0 ^↑ % | % of Cells with 1 to 4 Nuclei M3 [1, 8]: 4.0% | % of Cells with 1 to 4 Nuclei M4 [1, 8]: 6.2% | CBPI [1, 8]: 1.995 | Replication Index (%) [1, 8]: 101.2% | genotoxicity (human lymphocytes): not genotoxic per se | Distribution of BNMN Cells with 1 MN [2, 3]: 45 c,p1,p5,p10,g1,g5,g10,p1+iri, p5+iri, p10+iri | Distribution of BNMN Cells with 2 MN [2, 3]: 1 | Distribution of BNMN Cells with 3 MN [2, 3]: 0 | Distribution of BNMN Cells with 4 MN [2, 3]: 0 | Distribution of BNNB Cells with 1 NB [2, 3]: 33 c,p1,p5, p10,g1,g5,g10, p1+iri, p10+iri | Distribution of BNNB Cells with 2 NB [2, 3]: 2 | Distribution of BNNPB Cells with 1 NPB [2, 3]: 0 | Distribution of BNNPB Cells with 2 NPB [2, 3]: 0 | Micronuclei (MNi) Mean (BNMN)1000 ± SD [2, 3]: 11.50 ± 3.70 c,p1,p5,p10,g1,g5, g10,p1+iri, p5+iri, p10+iri | Micronuclei (MNi) Mean (MNi)1000 ± SD [2, 3]: 11.75 ± 4.11 c,p1,p5,p10,g1,g5,g10, p1+iri | Micronuclei (MNi) Total (BNMN)4000 [2, 3]: 46 c,p1,p5,p10,g1,g5,g10, p1+iri, p5+iri, p10+iri | Micronuclei (MNi) Total (MNi)4000 [2, 3]: 47 c,p1,p5,p10,g1,g5, g10,p1+iri | Nuclear Buds (NBs) Mean (BNNB)1000 ± SD [2, 3]: 8.75 ± 0.96 c,p1,p5,p10, g1,g5,g10, p1+iri,p5+iri, p10+iri | Nuclear Buds (NBs) Mean (NBs)1000 ± SD [2, 3]: 9.25 ± 1.50 c,p1,p5,p10,g1,g5,g10, p1+iri,p5+iri, p10+iri | Nuclear Buds (NBs) Total (BNNB)4000 [2, 3]: 35 c,p1,p5,p10, g1,g5,g10, p1+iri,p5+iri,p10+iri | Nuclear Buds (NBs) Total (NBs)4000 [2, 3]: 37 c,p1,p5, p10,g1,g5, g10, p1+iri, p5+iri, p10+iri | Nucleoplasmic Bridges (NPBs) Mean (BNNPB)1000 ± SD [2, 3]: 0 | Nucleoplasmic Bridges (NPBs) Mean (NPBs)1000 ± SD [2, 3]: 0 | Nucleoplasmic Bridges (NPBs) Total (BNNPB)4000 [2, 3]: 0 | Nucleoplasmic Bridges (NPBs) Total (NPBs)4000 [2, 3]: 0 | Micronuclei (MNi) Mean (MNi)1000 ± SD ([2]; 1× + IRI 9.0 mg/L, propolis 1.36 mg/L, galangin 0.02 mg/L, listed as galangin): 11.75 | Distribution of BNMN Cells with 1 MN [2, 4]: 8 | Distribution of BNMN Cells with 2 MN [2, 4]: 0 | Distribution of BNMN Cells with 3 MN [2, 4]: 0 | Distribution of BNMN Cells with 4 MN [2, 4]: 0 | Distribution of BNNB Cells with 1 NB [2, 4]: 7 | Distribution of BNNB Cells with 2 NB [2, 4]: 0 | Distribution of BNNPB Cells with 1 NPB [2, 4]: 0 | Distribution of BNNPB Cells with 2 NPB [2, 4]: 0 | Micronuclei (MNi) Mean (BNMN)1000 ± SD [2, 4]: 2.00 ± 0.82 | Micronuclei (MNi) Mean (MNi)1000 ± SD [2, 4]: 2.00 ± 0.82 | Micronuclei (MNi) Total (BNMN)4000 [2, 4]: 8 | Micronuclei (MNi) Total (MNi)4000 [2, 4]: 8 | Nuclear Buds (NBs) Mean (BNNB)1000 ± SD [2, 4]: 1.75 ± 0.50 | Nuclear Buds (NBs) Mean (NBs)1000 ± SD [2, 4]: 1.75 ± 0.50 | Nuclear Buds (NBs) Total (BNNB)4000 [2, 4]: 7 | Nuclear Buds (NBs) Total (NBs)4000 [2, 4]: 7 | Nucleoplasmic Bridges (NPBs) Mean (BNNPB)1000 ± SD [2, 4]: 0 | Nucleoplasmic Bridges (NPBs) Mean (NPBs)1000 ± SD [2, 4]: 0 | Nucleoplasmic Bridges (NPBs) Total (BNNPB)4000 [2, 4]: 0 | Nucleoplasmic Bridges (NPBs) Total (NPBs)4000 [2, 4]: 0 | Micronuclei (MNi) Mean (MNi)1000 ± SD ([2]; 1× alone, propolis 1.36 mg/L, galangin 0.02 mg/L, listed as galangin): 2.00 | Distribution of BNMN Cells with 1 MN [2, 5]: 43 c,p1,p5, p10,g1,g5, g10,p1+iri, p5+iri, p10+iri | Distribution of BNMN Cells with 2 MN [2, 5]: 1
